We go through two compounds from patent publication US8334291B2, “Aliphatically substituted pyrazolopyridines, and the use thereof” (Bayer Intellectual Property GmbH, priority 2008, dated 2012).

In this assay the test system is rabbit aorta rings contracted with phenylephrine. As to the kind of experiment: Vasorelaxant effect in vitro. To be noted: Oryctolagus cuniculus; concentration reducing height of phenylephrine-induced contraction of rabbit aorta rings by 50%; 0.1% DMSO. Further details: species or system Rabbits. How it is done:
Rabbits are stunned by a blow to the neck and exsanguinated. The aorta is removed, freed from adhering tissue and divided into rings of a width of 1.5 mm. The rings are placed individually under an initial tension in 5 ml organ baths with Krebs-Henseleit solution which is at 37° C., is gassed with carbogen and has the following composition (in each case mM): NaCl: 119; KCl: 4.8; CaCl2×2H2O: 1; MgSO4×7H2O: 1.4; KH2PO4: 1.2; NaHCO3: 25; glucose: 10. The force of contraction is detected with Statham UC2 cells, amplified and digitized via A/D converters (DAS-1802 HC, Keithley Instruments, Munich) and recorded in parallel on chart recorders. Contractions are induced by cumulatively adding increasing concentrations of phenylephrine to the bath. After several control cycles, the substance to be investigated is added in each further run in increasing dosage in each case, and the height of the contraction achieved is compared with the height of the contraction reached in the last preceding one. The concentration necessary to reduce the height of the control value by 50% is calculated from this (IC50 value). The standard application volume is 5 μl, the proportion of DMSO in the bath solution corresponds to 0.1%.

Regarding `Nc1nc(-c2nn(CC3CCCCCC3)c3ncccc23)ncc1-c1ccncc1` [Example 5, 2-[1-(Cycloheptylmethyl)-1H-pyrazolo[3,4-b]pyridin-3-yl]-5-(pyridin-4-yl)pyrimidine-4-amine], the IC50 amounted to 1000 nM. This counts as single-digit micromolar.

As to `COC(=O)Nc1c(N)nc(-c2nn(CC3CCCCC3)c3ncccc23)nc1N` [Example 1, Methyl[4,6-diamino-2-(1-cyclohexylmethyl-1H-pyrazolo[3,4-b]pyridin-3-yl)pyrimidin-5-yl]carbamate], 870 nM corresponded to half-maximal inhibition (IC50).
